Measured values as given in the supplement of paper PMC5908809.

Key:
KHYG-1 (IL-2 2.5 ng/mL) [1] = assay: percent inhibition of viability; higher = more inhibition; conditions: 72 h
[2] = tested on: normal primary NK cells, pool 2 (3 donors) (IL-2 2.5 ng/mL); assay: as above; conditions: 72 h
DERL-7 (IL-2 2.5 ng/mL) [3] = assay: as above; conditions: 72 h
NKL (IL-2 2.5 ng/mL) [4] = assay: as above; conditions: 72 h
KAI3 (IL-2 2.5 ng/mL) [5] = assay: as above; conditions: 72 h
NK-92 (IL-2 2.5 ng/mL) [6] = assay: as above; conditions: 72 h
YT (IL-2 2.5 ng/mL) [7] = assay: as above; conditions: 72 h
[8] = tested on: normal primary NK cells, pool 3 (3 donors) (IL-2 2.5 ng/mL); assay: as above; conditions: 72 h
SNK-6 (IL-2 2.5 ng/mL) [9] = assay: as above; conditions: 72 h
[10] = tested on: normal primary NK cells, pool 1 (3 donors), resting (IL-2 0 ng/mL); assay: as above; conditions: 72 h
IMC-1 (IL-2 20 ng/mL) [11] = assay: as above; conditions: 72 h
NK-YS (IL-2 2.5 ng/mL) [12] = assay: as above; conditions: 72 h
[13] = tested on: normal primary NK cells, pool 1 (3 donors) (IL-2 2.5 ng/mL); assay: as above; conditions: 72 h
[14] = tested on: normal NK cells expanded with K562-aAPC; assay: drug sensitivity score (DSS) (DSS units); higher = more sensitive; extreme values may be limits of the assay; conditions: 72 h; IL-2 2.5 ng/mL
Experimental: (§1)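 Drug sensitivity and resistance testing on K562-aAPC-expanded normal NK cells: 5 concentrations (10-fold steps over a 10,000-fold range), 72 h at 37 °C, viability by CellTiter-Glo normalised to DMSO and benzethonium chloride controls; DSS from the fitted curve.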

KHYG-1 (IL-2 2.5 ng/mL) [15] = assay: as above; conditions: 72 h
[16] = tested on: normal primary NK cells, pool 2 (3 donors) (IL-2 2.5 ng/mL); assay: as above; conditions: 72 h
DERL-7 (IL-2 2.5 ng/mL) [17] = assay: as above; conditions: 72 h
NKL (IL-2 2.5 ng/mL) [18] = assay: as above; conditions: 72 h
KAI3 (IL-2 2.5 ng/mL) [19] = assay: as above; conditions: 72 h
NK-92 (IL-2 2.5 ng/mL) [20] = assay: as above; conditions: 72 h
YT (IL-2 2.5 ng/mL) [21] = assay: as above; conditions: 72 h
[22] = tested on: normal primary NK cells, pool 3 (3 donors) (IL-2 2.5 ng/mL); assay: as above; conditions: 72 h
SNK-6 (IL-2 2.5 ng/mL) [23] = assay: as above; conditions: 72 h
[24] = tested on: normal primary NK cells, pool 1 (3 donors), resting (IL-2 0 ng/mL); assay: as above; conditions: 72 h
IMC-1 (IL-2 20 ng/mL) [25] = assay: as above; conditions: 72 h
NK-YS (IL-2 2.5 ng/mL) [26] = assay: as above; conditions: 72 h
[27] = tested on: normal primary NK cells, pool 1 (3 donors) (IL-2 2.5 ng/mL); assay: as above; conditions: 72 h
[28] = tested on: normal NK cells expanded with K562-aAPC; assay: percent inhibition of viability; higher = more inhibition; conditions: 72 h, IL-2 2.5 ng/mL
Experimental: as §1

CO[C@@]12[C@H](COC(N)=O)C3=C(C(=O)C(C)=C(N)C3=O)N1C[C@@H]1N[C@@H]12 [Mitomycin C] (max concentration tested 10000 nM)
percent inhibition of viability [%]
Conditions	1 nM	10 nM	100 nM	1000 nM	10000 nM
DERL-7 (IL-2 2.5 ng/mL) [3]	-3.54	4.32	-0.35	-4.88	11.3
IMC-1 (IL-2 20 ng/mL) [11]	-2.35	2.42	2.75	5.66	98.4
KAI3 (IL-2 2.5 ng/mL) [5]	-6	1.39	6.47	42.2	90.1
KHYG-1 (IL-2 2.5 ng/mL) [1]	-11.3	-10.2	-3.76	90.6	106
NK-92 (IL-2 2.5 ng/mL) [6]	-6.49	-1.15	-5.66	25.2	96
NK-YS (IL-2 2.5 ng/mL) [12]	-3.94	-3.78	7.6	89.1	101
NKL (IL-2 2.5 ng/mL) [4]	-16.1	-7.78	25.9	99.1	99.9
SNK-6 (IL-2 2.5 ng/mL) [9]	8	-22.7	-15.3	85.5	90
YT (IL-2 2.5 ng/mL) [7]	-7.65	-5.91	-4.19	-0.39	73.2
[2]	-2.16	4.57	8.07	44.3	91.9
[8]	-2.62	8.35	8.1	31.6	94.6
[10]	3.33	21.6	12.1	19.2	72.1
[13]	-7.25	13.3	6.96	7.9	35
[28]	-6.75	-6.89	-6.31	1.66	36.7

Conditions	drug sensitivity score
DERL-7 (IL-2 2.5 ng/mL) [17]	0
IMC-1 (IL-2 20 ng/mL) [25]	6.29
KAI3 (IL-2 2.5 ng/mL) [19]	9.91
KHYG-1 (IL-2 2.5 ng/mL) [15]	16.3
NK-92 (IL-2 2.5 ng/mL) [20]	9.13
NK-YS (IL-2 2.5 ng/mL) [26]	17.2
NKL (IL-2 2.5 ng/mL) [18]	21.9
SNK-6 (IL-2 2.5 ng/mL) [23]	14.8
YT (IL-2 2.5 ng/mL) [21]	4.01
[14]	1.99
[16]	10.3
[22]	9.16
[24]	6.45
[27]	2.74

CCC1=C[C@@H]2CN(C1)Cc1c([nH]c3ccccc13)[C@@](C(=O)OC)(c1cc3c(cc1OC)N(C)[C@H]1[C@@](O)(C(=O)OC)[C@H](OC(C)=O)[C@]4(CC)C=CCN5CC[C@]31[C@@H]54)C2 [Vinorelbine] (max concentration tested 10000 nM)
percent inhibition of viability [%]
Conditions	1 nM	10 nM	100 nM	1000 nM	10000 nM
DERL-7 (IL-2 2.5 ng/mL) [3]	-3.93	85.2	98.5	98.5	100
IMC-1 (IL-2 20 ng/mL) [11]	-0.83	99.3	99.7	100	101
KAI3 (IL-2 2.5 ng/mL) [5]	-0.08	44.9	58.9	70.4	70.2
KHYG-1 (IL-2 2.5 ng/mL) [1]	2.76	57.8	97.2	103	105
NK-92 (IL-2 2.5 ng/mL) [6]	-12.5	23.4	88.8	98.5	102
NK-YS (IL-2 2.5 ng/mL) [12]	10.7	66.4	64.9	84.2	90
NKL (IL-2 2.5 ng/mL) [4]	3.63	84.8	93.6	93.9	93.2
SNK-6 (IL-2 2.5 ng/mL) [9]	22.5	78.3	84.4	96.7	96.5
YT (IL-2 2.5 ng/mL) [7]	0.44	65.8	95.2	98.7	100
[2]	-13.5	0.55	18.7	12.3	39.7
[8]	-16.2	-7.94	14.5	19.8	32.1
[10]	-1.44	-3.84	-0.59	21.5	76.9
[13]	-4.33	-2.37	-0.15	4.78	40.3
[28]	1.8	11.8	57.4	59.7	79

Conditions	drug sensitivity score
DERL-7 (IL-2 2.5 ng/mL) [17]	40.4
IMC-1 (IL-2 20 ng/mL) [25]	42.8
KAI3 (IL-2 2.5 ng/mL) [19]	27.1
KHYG-1 (IL-2 2.5 ng/mL) [15]	37.3
NK-92 (IL-2 2.5 ng/mL) [20]	31.6
NK-YS (IL-2 2.5 ng/mL) [26]	33.5
NKL (IL-2 2.5 ng/mL) [18]	39.5
SNK-6 (IL-2 2.5 ng/mL) [23]	40.6
YT (IL-2 2.5 ng/mL) [21]	38.2
[14]	20.7
[16]	3.94
[22]	4.42
[24]	7.49
[27]	2.8
